Results reported in patent US20210038587A1, “METHODS AND COMPOSITIONS FOR TREATING NON-ERK MAPK PATHWAY INHIBITOR-RESISTANT CANCERS” (BIOMED VALLEY DISCOVERIES, INC., priority 2013, published 2021).

Key:
Assay in all cases: Reverse Phase Protein Analysis (RPPA)
Settings in all cases: % change from DMSO (matched cell line)
A375 = type: cell-based, human
Method: (§1) Control wells were treated with DMSO at 0.1% (v/v) for 6 hours prior to cell lysate generation. Samples were then analyzed using reverse-phase protein microarray technology (Theranostics Health).
(§2) Cell lines with common alterations in BRAF and RAS were assayed: BRAF^V600E mutant lines A375, Colo205, and HT29; KRAS^G12C-mutant cell line MIAPACa-2; KRAS^G13D-mutant cell line HCT116; and AN3Ca with atypical HRAS^F82L mutation. Changes in protein levels are shown as a percentage change from dimethyl sulfoxide (DMSO)-treated parental control (FIG. 32A and Table 23).

HCT116 = type: cell-based, human
Method: as §1, §2

HT29 = type: cell-based
Method: as §1, §2

AN3Ca = type: cell-based
Method: as §1, §2

## Cc1cnc(Nc2ccc(F)cc2Cl)nc1-c1c[nH]c(C(=O)N[C@H](CO)c2cccc(Cl)c2)c1 [Vx-11e]
A375
  Avg (4ebp1 T70): 23.33%
  Avg (Akt S473): 93.85%
  Avg (Akt): −30.34%
  Avg (Bad S136): 5.06%
  Avg (Bad S155): −6.3%
  Avg (Bak): 0.65%
  Avg (Bax): −5.05%
  Avg (Bcl 2): −9.93%
  Avg (Bcl2 S70): −4.02%
  Avg (Bcl 2 T56): −7.53%
  Avg (Bim): 12.32%
  Avg (CREB S133): −15.8%
  Avg (Caspase 3 CL D175): −9.27%
  Avg (Caspase 7 Cl D198): −7.62%
  Avg (Chk1): −0.86%
  Avg (Chk1 S345): 0.56%
  Avg (Cyclin D1): −85.46%
  Avg (ERK 1 2): −5.39%
  Avg (ERK 1 2 T202 Y204): 128.93%
  Avg (MAK1 S360): −7.63%
  Avg (Mcl1): 1.6%
  Avg (Raptor S792): −0.86%
  Avg (Raptor): −12.7%
  Avg (Rictor): −8.16%
  Avg (Stat1): 0.23%
  Avg (Stat3): 1.71%
  Avg (bad S112): −69.29%
  Avg (c Fos): −13.65%
  Avg (c Myc): −0.97%
  Avg (mTOR S2448): −21.66%
  Avg (mTOR S2481): −2.9%
  Avg (mTOR): −3.31%
  Avg (p70 S6 Kinase): −6.42%
  Avg (p90 RSK S380): −65.25%
  Avg(Tuberin TSC2 Y1571): −3.55%
  Avg(p70 S6 Kinase S371 S394): −17.32%
  Avg(p70 S6 Kinase T389 T412): −25.54%
HCT116
  Avg (4ebp1 T70): 10.35%
  Avg (Akt S473): −16.94%
  Avg (Akt): −18.15%
  Avg (Bad S136): −5.39%
  Avg (Bad S155): −15.59%
  Avg (Bak): −3.07%
  Avg (Bax): −20.46%
  Avg (Bcl 2): −17.3%
  Avg (Bcl2 S70): −17.79%
  Avg (Bcl 2 T56): −25%
  Avg (Bim): 4.82%
  Avg (CREB S133): −9.17%
  Avg (Caspase 3 CL D175): −5.19%
  Avg (Caspase 7 Cl D198): −11.41%
  Avg (Chk1): −8.63%
  Avg (Chk1 S345): −16.49%
  Avg (Cyclin D1): −72.72%
  Avg (ERK 1 2): −24.01%
  Avg (ERK 1 2 T202 Y204): 873.33%
  Avg (MAK1 S360): −13.73%
  Avg (Mcl1): −7.79%
  Avg (Raptor S792): −11.21%
  Avg (Raptor): −4.32%
  Avg (Rictor): 1.78%
  Avg (Stat1): −14.06%
  Avg (Stat3): −7.76%
  Avg (bad S112): −23.88%
  Avg (c Fos): −13.89%
  Avg (c Myc): −18.56%
  Avg (mTOR S2448): −10.12%
  Avg (mTOR S2481): −17.82%
  Avg (mTOR): −0.59%
  Avg (p70 S6 Kinase): −4.45%
  Avg (p90 RSK S380): −33.05%
  Avg(S6 Ribo Prot S235 236): −90.03%
  Avg(S6 Ribo Prot S240 244): −86.06%
  Avg(Tuberin TSC2 Y1571): −16.51%
  Avg(p70 S6 Kinase S371 S394): −9.89%
  Avg(p70 S6 Kinase T389 T412): −20.99%
HT29
  Avg (4ebp1 T70): −2.89%
  Avg (Akt S473): −20.5%
  Avg (Akt): −17.84%
  Avg (Bad S136): 5.53%
  Avg (Bad S155): −11.26%
  Avg (Bak): 2.69%
  Avg (Bax): −18.47%
  Avg (Bcl 2): −16.73%
  Avg (Bcl2 S70): −12.55%
  Avg (Bcl 2 T56): −25.01%
  Avg (Bim): 3.12%
  Avg (CREB S133): 14.16%
  Avg (Caspase 3 CL D175): −2.86%
  Avg (Caspase 7 Cl D198): 8.28%
  Avg (Chk1): 4.68%
  Avg (Chk1 S345): 6.44%
  Avg (Cyclin D1): −35.2%
  Avg (ERK 1 2): 0.24%
  Avg (ERK 1 2 T202 Y204): 435.68%
  Avg (MAK1 S360): 5.64%
  Avg (Mcl1): 1.36%
  Avg (Raptor S792): −2.13%
  Avg (Raptor): −6.53%
  Avg (Rictor): −2.6%
  Avg (Stat1): 4.29%
  Avg (Stat3): −4.28%
  Avg (bad S112): −35.62%
  Avg (c Fos): −8.23%
  Avg (c Myc): 10.71%
  Avg (mTOR S2448): −13.94%
  Avg (mTOR S2481): 0.52%
  Avg (mTOR): 16.94%
  Avg (p70 S6 Kinase): −1.72%
  Avg (p90 RSK S380): −43.41%
  Avg(S6 Ribo Prot S235 236): −32.8%
  Avg(S6 Ribo Prot S240 244): −24.35%
  Avg(Tuberin TSC2 Y1571): 2.85%
  Avg(p70 S6 Kinase S371 S394): −22.86%
  Avg(p70 S6 Kinase T389 T412): −12.31%
AN3Ca
  Avg (4ebp1 T70): 16.67%
  Avg (Akt S473): 56.17%
  Avg (Akt): −24.62%
  Avg (Bad S136): −3.81%
  Avg (Bad S155): 4.59%
  Avg (Bak): −1.6%
  Avg (Bax): −7.89%
  Avg (Bcl 2): −18.77%
  Avg (Bcl2 S70): −14.39%
  Avg (Bcl 2 T56): −11.73%
  Avg (Bim): −1.46%
  Avg (CREB S133): 0.16%
  Avg (Caspase 3 CL D175): −12.7%
  Avg (Caspase 7 Cl D198): −8.09%
  Avg (Chk1): −0.46%
  Avg (Chk1 S345): −9.54%
  Avg (Cyclin D1): −9.59%
  Avg (ERK 1 2): −11.27%
  Avg (ERK 1 2 T202 Y204): 718.94%
  Avg (MAK1 S360): 6.83%
  Avg (Mcl1): −4.24%
  Avg (Raptor S792): 0.37%
  Avg (Raptor): −2.47%
  Avg (Rictor): 0.02%
  Avg (Stat1): −0.83%
  Avg (Stat3): −7.67%
  Avg (bad S112): −45.63%
  Avg (c Fos): −5.52%
  Avg (c Myc): −5.47%
  Avg (mTOR S2448): −2.37%
  Avg (mTOR S2481): 7.22%
  Avg (mTOR): −6.27%
  Avg (p70 S6 Kinase): −2.33%
  Avg (p90 RSK S380): −28.41%
  Avg(S6 Ribo Prot S235 236): −18.54%
  Avg(S6 Ribo Prot S240 244): −12.55%
  Avg(Tuberin TSC2 Y1571): 3.8%
  Avg(p70 S6 Kinase S371 S394): 44.04%
  Avg(p70 S6 Kinase T389 T412): 0.56%
